Experimental data: patent publication US9476053B2, “Methods and compositions for inhibition of immune responses and autoimmunity” (Dynavax Technologies Corporation, priority 2007, dated 2016)

What was measured:
TLR9 [1] = target: T1, TLR9 (Mus musculus, UniProt Q9EQU3); experiment: Mouse splenocytes stimulated with 1018 ISS (TLR9 ligand), IL-6 by immunoassay; type: cell-based; details: TLR9 stimulation (1018 ISS)
T1 construct: The dispersed splenocytes were pelleted by centrifugation, then resuspended in fresh medium; endogenous in cells; host or cells: primary splenocytes of BALB/c mice
T1 sequence (Q9EQU3 26-1032): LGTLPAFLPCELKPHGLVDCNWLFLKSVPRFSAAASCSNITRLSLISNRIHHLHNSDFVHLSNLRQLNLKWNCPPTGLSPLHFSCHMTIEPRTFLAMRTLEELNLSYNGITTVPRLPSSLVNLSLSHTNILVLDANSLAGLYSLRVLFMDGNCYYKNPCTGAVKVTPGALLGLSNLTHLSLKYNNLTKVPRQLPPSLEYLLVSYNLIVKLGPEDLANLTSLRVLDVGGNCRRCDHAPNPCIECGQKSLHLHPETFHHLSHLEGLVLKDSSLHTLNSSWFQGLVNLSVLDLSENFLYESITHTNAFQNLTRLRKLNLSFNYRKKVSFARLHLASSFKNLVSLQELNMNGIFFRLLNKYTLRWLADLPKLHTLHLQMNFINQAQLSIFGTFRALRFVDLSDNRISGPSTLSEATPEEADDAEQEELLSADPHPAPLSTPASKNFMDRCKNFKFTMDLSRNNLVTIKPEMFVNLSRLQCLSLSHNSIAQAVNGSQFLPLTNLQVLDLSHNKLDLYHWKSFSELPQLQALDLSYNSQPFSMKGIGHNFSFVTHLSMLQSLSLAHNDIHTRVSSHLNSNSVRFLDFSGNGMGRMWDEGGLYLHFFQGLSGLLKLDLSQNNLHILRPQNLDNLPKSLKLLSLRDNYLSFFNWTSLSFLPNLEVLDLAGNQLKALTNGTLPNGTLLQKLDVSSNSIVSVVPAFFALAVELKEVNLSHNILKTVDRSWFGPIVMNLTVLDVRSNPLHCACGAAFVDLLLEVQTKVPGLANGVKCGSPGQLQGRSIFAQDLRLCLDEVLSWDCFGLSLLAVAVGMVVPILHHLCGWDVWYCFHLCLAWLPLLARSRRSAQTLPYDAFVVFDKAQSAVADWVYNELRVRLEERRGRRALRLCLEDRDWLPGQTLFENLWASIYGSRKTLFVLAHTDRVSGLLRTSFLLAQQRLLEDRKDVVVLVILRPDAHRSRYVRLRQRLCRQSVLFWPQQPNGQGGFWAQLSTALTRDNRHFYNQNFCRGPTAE
Method: (§1) Modified and unmodified immunoregulatory polynucleotides (IRPs) (i.e., polynucleotides containing at least one modified or unmodified IRS) or control samples were assayed for immunoregulatory (IR) activity of innate immune responses on human and mouse cells.
(§2) For mouse cell assays, spleens from 6-12 week-old BALB/c mice spleen were harvested and mechanically dispersed by forcing the digested fragments through metal screens. The dispersed splenocytes were pelleted by centrifugation, then resuspended in fresh medium (RPMI 1640 with 10% fetal calf serum, plus 50 units/mL penicillin, 50 μg/mL streptomycin, 2 mM glutamine, and 0.05 mM β-mercaptoethanol). In a dose-dependent manner, the cells were then stimulated with […] of 1018 ISS (TLR9 ligand; 5′-[…]-3′ (SEQ ID NO:122)) or 1 μM of R848 (TLR7 ligand; a small molecule, an imidazoquinoline also called resiquimod) either alone or in the presence of the tested IRPs. At 48 hours, supernatants were collected and cytokine levels, IL-6, were measured using immunoassays. […]

TLR7 = target: T2, TLR7 (Mus musculus, UniProt P58681); experiment: Mouse splenocytes stimulated with R848 (TLR7 ligand), IL-6 by immunoassay; type: cell-based
T2 construct: The dispersed splenocytes were pelleted by centrifugation, then resuspended in fresh medium; endogenous in cells; host or cells: primary splenocytes of BALB/c mice
T2 sequence (P58681 27-1050): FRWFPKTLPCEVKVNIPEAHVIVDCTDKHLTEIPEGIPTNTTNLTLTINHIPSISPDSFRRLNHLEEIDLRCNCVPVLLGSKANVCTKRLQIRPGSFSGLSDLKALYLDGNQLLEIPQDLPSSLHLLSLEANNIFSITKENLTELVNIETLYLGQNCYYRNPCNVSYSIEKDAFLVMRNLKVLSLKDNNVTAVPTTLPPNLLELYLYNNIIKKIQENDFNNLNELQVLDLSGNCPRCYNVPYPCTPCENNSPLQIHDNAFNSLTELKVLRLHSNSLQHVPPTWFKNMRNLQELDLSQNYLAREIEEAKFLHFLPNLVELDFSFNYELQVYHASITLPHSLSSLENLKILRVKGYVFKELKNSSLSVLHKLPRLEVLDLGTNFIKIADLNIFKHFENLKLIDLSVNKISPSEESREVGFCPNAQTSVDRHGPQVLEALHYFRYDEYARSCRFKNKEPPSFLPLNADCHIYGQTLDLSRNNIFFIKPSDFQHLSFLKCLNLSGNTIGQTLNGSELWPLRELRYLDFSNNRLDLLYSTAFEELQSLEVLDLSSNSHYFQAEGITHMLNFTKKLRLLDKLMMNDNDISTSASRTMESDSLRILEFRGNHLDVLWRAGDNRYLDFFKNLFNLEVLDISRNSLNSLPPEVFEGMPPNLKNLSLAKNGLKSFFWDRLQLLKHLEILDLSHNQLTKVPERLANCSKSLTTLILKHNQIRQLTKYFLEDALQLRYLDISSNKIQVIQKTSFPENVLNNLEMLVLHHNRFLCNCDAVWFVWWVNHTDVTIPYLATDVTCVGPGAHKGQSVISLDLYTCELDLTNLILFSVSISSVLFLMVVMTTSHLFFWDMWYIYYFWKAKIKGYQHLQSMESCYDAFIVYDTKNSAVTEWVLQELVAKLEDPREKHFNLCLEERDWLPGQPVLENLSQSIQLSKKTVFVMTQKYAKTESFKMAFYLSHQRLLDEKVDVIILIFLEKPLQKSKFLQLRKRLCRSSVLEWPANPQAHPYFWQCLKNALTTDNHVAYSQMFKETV
Method: as §1, §2

PDC = experiment: In vivo cell survival after escalating dose of Dexthametasone in 129 mice; design: species or system mouse; details: 0.5 mg-4 mg, 16 hours, spleen and blood
Method: To investigate whether PDC are sensitive to glucorticoid induced death in vivo, 129 mice were treated with escalating dose of Dexthametasone (0.5 mg-4 mg) and after 16 hours spleen and blood was harvest. Cell survival was measured by flow cytometry. The number of viable cells was evaluated by flow cytometry by comparing to a fixed amount of microbeads that was added in equal amount in all samples prior to the measure on the flow cytometry.
Specific markers were used to identify specific subsets. Cells were identified to be PDC by the surface presence of B220, CD11c, and PDCA1 marker. Myeloid dendritic cells were identified as to be CD11c positive and B220 negative. B-cells were identified as B220 positive cells and CD11c negative. Monocytes were identified as CD11b positive. Cell viability using cells from spleen tissue under increasing Dexthametason dose was evaluated and results are shown in FIG. 32. Similar results were obtained using blood (data not shown). PDC were sensitive to glucorticoid induced death in vivo.

TLR9 [2] = target: T3, TLR9 (Homo sapiens, UniProt Q9NR96); experiment: Human PDC activated with CpG-C ISS C274, IFN-α production, IRS coupled to Ficoll 400; type: cell-based; design: innate immune responses on human plasmacytoid dendritic cells (PDCs); endogenous in cells; host or cells: human plasmacytoid dendritic cells (PDCs); details: compared with IRS not coupled
T3 sequence (Q9NR96 26-1032): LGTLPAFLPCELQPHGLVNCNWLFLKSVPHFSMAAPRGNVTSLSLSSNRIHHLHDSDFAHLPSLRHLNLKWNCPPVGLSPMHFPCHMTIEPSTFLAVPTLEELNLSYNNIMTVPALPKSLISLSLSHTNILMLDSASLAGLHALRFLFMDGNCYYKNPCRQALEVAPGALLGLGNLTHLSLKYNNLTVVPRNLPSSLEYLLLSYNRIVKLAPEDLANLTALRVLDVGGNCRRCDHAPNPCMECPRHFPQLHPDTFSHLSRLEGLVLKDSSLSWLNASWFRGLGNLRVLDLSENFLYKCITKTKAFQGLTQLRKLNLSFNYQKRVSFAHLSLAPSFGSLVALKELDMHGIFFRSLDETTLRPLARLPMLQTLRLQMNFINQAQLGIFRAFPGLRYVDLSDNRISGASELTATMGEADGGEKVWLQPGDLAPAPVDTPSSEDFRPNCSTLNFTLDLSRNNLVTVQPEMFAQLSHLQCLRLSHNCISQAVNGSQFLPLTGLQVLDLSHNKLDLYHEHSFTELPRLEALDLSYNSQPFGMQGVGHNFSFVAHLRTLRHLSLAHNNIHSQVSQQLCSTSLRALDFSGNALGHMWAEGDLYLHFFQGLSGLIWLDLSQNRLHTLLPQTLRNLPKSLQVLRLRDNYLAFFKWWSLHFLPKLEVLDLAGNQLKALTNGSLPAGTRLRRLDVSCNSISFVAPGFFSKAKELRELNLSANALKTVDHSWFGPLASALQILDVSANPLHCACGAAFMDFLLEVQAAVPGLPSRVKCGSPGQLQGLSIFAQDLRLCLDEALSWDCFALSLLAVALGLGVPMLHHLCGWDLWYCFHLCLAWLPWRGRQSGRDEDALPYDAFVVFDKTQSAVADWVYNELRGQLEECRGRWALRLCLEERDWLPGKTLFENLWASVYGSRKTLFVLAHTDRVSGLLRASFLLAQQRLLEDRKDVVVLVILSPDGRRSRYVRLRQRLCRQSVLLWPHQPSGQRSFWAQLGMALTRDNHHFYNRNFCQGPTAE
Source text: To further investigate whether it is possible to increase IRS activity with respect to inhibition of IFN-α production by aggregating IRS molecule onto a higher order molecule, we have generated molecules that are composed by IRS oligonucleotides that are covalently associated to Ficoll 400, a neutral, highly branched, hydrophilic polymer of sucrose. The nature of this sugar allowed us to link between 10 to over 100 IRS oligos per Ficoll molecule.
The conjugation of oligonucleotides to ficoll as practiced currently consists of four reaction steps: (I) The commercially obtained ficoll is carboxymethylated by reaction of ficoll with chloroacetic acid in base. (II) After neutralization and dialysis, product is reacted with ethylene diamine in the presence of the 1-ethyl-3-[3-(dimethylaminopropyl]carbodiimide) EDC to give product (III). After dialysis Product (III) is reacted with (sulfosuccinimidal 4-[N-maleimidyl]-cyclohexane-1-carboxylate) SMCC to give the ficoll-maleimide product (IV). The thiol-reactive species (IV) is then reacted with the oligonucleotide thiol to give the final product (V), a multioligonucleotide conjugate of ficoll.
Thus, it is possible to increase IRS activity with respect to inhibition of IFN-α production by aggregating IRS molecule onto a higher order molecule.

Molecule: 5′-UGCUCCUGGAGGGG UUGU-3′ (DNA TGCTCCTGGAGGGGTTGT; all LNA, backbone and methylation of C not given here) [SEQ ID NO:161]
- IL-6 levels compared to unmodified SEQ ID NO:123 (TLR9 [1]): failed to result in a significant decreased
- IL-6 levels compared to unmodified SEQ ID NO:123 (TLR7): failed to result in a significant decreased

Molecule: C[C@@H]1C[C@H]2[C@@H]3CCC4=CC(=O)C=C[C@]4(C)[C@@]3(F)[C@@H](O)C[C@]2(C)[C@@]1(O)C(=O)CO [Dexthametasone]
- PDC sensitivity to glucorticoid induced death in vivo (PDC): sensitive

Molecule: IRS-Ficoll 400: 5′-TGCTCCTGGAGGGGTTGT-3′ (SEQ ID NO:123) coupled to Ficoll 400 (coupled to Ficoll 400, backbone chemistry not given here)
- activity for blocking IFN-α production by PDC (TLR9 [2]): much increased activity
